Results reported in US6660468B1, “Vitro and in vivo models for screening compounds to prevent glucocorticoid-induced bone destruction” (Board of Trustees of the University of Arkansas, priority 1998, dated 2003).

Assays:
Type in all cases: in vivo, mouse
Male Swiss Webster mice [1] = assay: Bone densitometry (DEXA) in prednisolone-treated mice; conditions: for Global BMD (% change) / Hindquarters BMD (% change) / Spinal BMD (% change): 27 days
Text: (§1) Bone mineral density (BMD) determinations were done at two week intervals to identify the peak adult bone mass of the mice, which was reached between 5 and 6 months-of-age (9). Animals at peak bone mass were used to avoid obscuring the negative impact of glucocorticoid excess on bone mineral density by the confounding effects of increased linear and radial growth. Before the experiment began, bone mineral density measurements were repeated to allocate the animals into groups (n=4-5) with equivalent spinal density values. […] These doses were administered for 27 days by subcutaneous implantation of slow-release pellets (Innovative Research of America, Sarasota, Fla.). Bone mineral density measurements were obtained at the beginning of the experiment and 27 days post-implantation. For dynamic histomorphometric measurements, tetracycline HCl (30 mg/kg body weight) was given intraperitoneally 17 and 23 days post-implantation. After 27 days, the mice were sacrificed, serum and urine specimens were taken, bone marrow aspirates were obtained from the right femur for ex vivo marrow cell cultures and the left femur and lumbar vertebrae were prepared for histomorphometric analysis. Livers were examined for fatty infiltration as a sign of prednisolone toxicity. The weight of the seminal vesicles (mg/100 g body weight) was used as an index of the androgen status of the animals (12). To help interpret these measurements, a separate group of animals was orchidectomized (n=5).
Dual-energy X-ray absorptiometry (DEXA) was used to determine global (whole body minus the head), spinal and hindquarters bone mineral density in live mice (7,9). The scans done at 27 days after pellet implantation were analyzed using the ‘Compare’ technique, in which the evaluation is based on the exact positioning and region of interest placement of the baseline scan. […] Over the 18 months, the coefficient of variation for the bone mineral density of a plastic-embedded whole mouse skeleton was 3.0% (n=146).

Male Swiss Webster mice [2] = assay: Serum and urine biochemical measurements (osteocalcin, deoxypyridinoline); conditions: 27 days; for Osteocalcin: serum; for Deoxypyridinoline: urine
Protocol: as §1, with “Animals” for “Bone mineral density (BMD) determinations were done at two week intervals to identify the peak adult bone mass of the mice, which was reached between 5 and 6 months-of-age (9). Animals”
Serum osteocalcin was measured by radioimmunoassay using a goat anti-murine osteocalcin and murine osteocalcin as tracer and standard (Biomedical Technologies, Stoughton, Mass.). Urinary free deoxypyridinoline excretion was determined by a microtiter competitive enzyme immunoassay (Pyrilinks-D, Metra Biosystems, Mountain View, Calif.) and was expressed as a ratio to the urinary creatinine.

[3] = Food intake, body weight, seminal vesicle weight and hepatic fatty infiltration; conditions: mice; for Seminal Vesicle Weight: index of androgen status
Protocol: Male Swiss Webster mice (Charles River Laboratories, Stone Ridge, N.Y.) were electronically tagged (Biomedic Data System Inc., Maywood, N.J.) and kept in plastic cages (3-5 animals per cage) under standard laboratory conditions with a 12 hr dark, 12 hr light cycle and a constant temperature of 20° C. and humidity of 48%. All mice were fed on a standard rodent diet (Agway RMH 3000, Arlington Heights, Ill.) containing 22% protein, 5% fat, 5% fiber, 6% ash, 3.5 Kcal/g, 1.0 IU vitamin D3/g, 0.97% calcium and 0.85% phosphorus with water ad libitum. The animals and food supply were weighed at one week intervals throughout the experiment. Studies were approved by the UAMS Division of Laboratory and Animal Medicine.
as §1

[4] = test system: murine osteoblasts and osteocytes; assay: Apoptosis (TUNEL) in undecalcified murine bone sections
Protocol: Sections were mounted on silane-coated glass slides (Scientific Device Lab, Inc., Des Plains, Ill.), deplasticized and incubated in 10 mM citrate buffer, pH 7.6, in a microwave oven at 98° C. for 5 minutes. Slides were then incubated with 0.5% pepsin for 30 minutes at 37° C. Apoptotic cells were detected by the TUNEL reaction (transferase-mediated biotin-dUTP nick end-labeling) using Klenow terminal deoxynucleotidyl transferase (Oncor, Gaithersburg, Md.) in sections counterstained with 1% methyl green. The TUNEL reaction was noted within cell nuclei and the cells whose nuclei were clearly brown from the peroxidase-labeled anti-digoxigenin antibody instead of the blue-green from the methyl green were interpreted as positive. Plastic-embedded sections of weaned rat mammary tissue were used as a positive control. Negative controls were made by omitting the transferase. Morphological changes characteristic of apoptosis were examined carefully to minimize ambiguity regarding the interpretation of results. With these precautions, TUNEL has been unequivocally associated with apoptosis (19). […] Apoptosis was also assessed in transiliac bone biopsy specimens taken from two patients with glucocorticoid-induced osteoporosis (receiving 15 to 25 mg/d of prednisone for 3 to 6 yr) and from 12 age-, sex- and race-matched controls (13). Two longitudinal sections were examined from each patient and control subject. Osteoblasts were identified as cuboidal cells lining the osteoid-covered trabecular perimeter (7,9,13). Osteocytes were identified inside lacunae in mineralized bone.

Structure (SMILES): C[C@]12C=CC(=O)C=C1CC[C@@H]1[C@@H]2[C@@H](O)C[C@@]2(C)[C@H]1CC[C@]2(O)C(=O)CO [prednisolone]
- Global BMD (% change) (Male Swiss Webster mice [1]; 0.7 mg/kg/d s.c. slow-release pellet): −5.0 ± 2.2 % change
- Hindquarters BMD (% change) (Male Swiss Webster mice [1]; 0.7 mg/kg/d): −3.8 ± 8.0 % change
- Spinal BMD (% change) (Male Swiss Webster mice [1]; 0.7 mg/kg/d): −6.8 ± 3.2 % change
- Effect on bone mineral density (Male Swiss Webster mice [1]; 1.4 mg/kg/d, pilot studies): invariably causes densitometric evidence of bone loss
- Global BMD (% change) (Male Swiss Webster mice [1]; 2.1 mg/kg/d s.c. slow-release pellet): −6.6 ± 1.9 % change
- Hindquarters BMD (% change) (Male Swiss Webster mice [1]; 2.1 mg/kg/d): −3.4 ± 6.9 % change
- Spinal BMD (% change) (Male Swiss Webster mice [1]; 2.1 mg/kg/d): −8.7 ± 3.5 % change
- Effect on bone mineral density (Male Swiss Webster mice [1]; pellets releasing 0.5 mg/kg/d (the no effect dose)): did not decrease bone mineral density
- Decrease of serum osteocalcin compared to placebo (Male Swiss Webster mice [2]): more than 50%
- Osteocalcin (Male Swiss Webster mice [2]; 0.7 mg/kg/d): 63.0 ± 27.7 µg/L
- Osteocalcin (Male Swiss Webster mice [2]; 2.1 mg/kg/d): 46.4 ± 13.8 µg/L
- Deoxypyridinoline (Male Swiss Webster mice [2]; 0.7 mg/kg/d): 63.6 ± 14.7 μM/mM creatinine
- Deoxypyridinoline (Male Swiss Webster mice [2]; 2.1 mg/kg/d): 81.5 ± 11.3 μM/mM creatinine
- Body Weight ([3]; 0.7 mg/kg/d): 33.8 ± 4.3 g
- Food Intake ([3]; 0.7 mg/kg/d): 3.6 ± 0.2 g/day
- Seminal Vesicle Weight ([3]; 0.7 mg/kg/d): 92.7 ± 8.7 mg/100 g body weight
- Body Weight ([3]; 2.1 mg/kg/d): 32.2 ± 4.2 g
- Food Intake ([3]; 2.1 mg/kg/d): 3.7 ± 0.4 g/day
- Seminal Vesicle Weight ([3]; 2.1 mg/kg/d): 83.1 ± 6.9 mg/100 g body weight
- Hepatic fatty infiltration ([3]; sign of prednisolone toxicity, 27 days): absent
- Apoptotic hypertrophic chondrocytes and bone marrow cells ([4]; either dose, mice): increase
- Increase in osteoblast apoptosis in vertebrae ([4]; higher dose, 27 days, vs controls): 3 fold
- Apoptotic osteocytes in femoral metaphyseal cortical bone ([4]; higher dose, 27 days, 131 osteocytes, none in controls): 28%
- Osteoblast apoptosis in vertebral cancellous bone ([4]; higher dose, 27 days, controls 0.66%±0.07): 2.03%±0.34
- fAp, fraction of osteoblasts that undergoes apoptosis ([4]; higher dose, estimate with tAp doubled, placebo 0.6): 0.9
- Prevalence of osteoblast apoptosis (fraction) ([4]; higher dose, placebo 0.0066): 0.0203
- Osteoclast apoptosis ([4]; mice, 27 days): not observed
